Drawing on US20220226298A1, “GPR40 AGONISTS” (Kallyope, Inc., priority 2019, published 2022), this text covers EC50 for 37 molecules.

T1 sequence (O14842 whole entry): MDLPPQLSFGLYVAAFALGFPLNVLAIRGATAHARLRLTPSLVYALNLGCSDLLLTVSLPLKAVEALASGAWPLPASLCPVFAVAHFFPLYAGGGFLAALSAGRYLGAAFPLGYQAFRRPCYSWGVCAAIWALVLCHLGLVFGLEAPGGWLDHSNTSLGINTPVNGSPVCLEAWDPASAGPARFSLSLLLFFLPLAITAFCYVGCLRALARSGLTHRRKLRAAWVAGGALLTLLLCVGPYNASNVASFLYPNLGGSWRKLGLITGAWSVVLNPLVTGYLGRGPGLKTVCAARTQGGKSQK

The experiment has as its target T1, human GPR40 (Homo sapiens, UniProt O14842).
T1 construct: host or cells: CHO-K1
Description: Inositol phosphate accumulation assay (IP1 HTRF) in CHO-K1 cells expressing human GPR40. Type of experiment: cell-based. The conditions noted are these: 90 min stimulation. On the procedure: CHO-KI cells expressing human GPR40 were purchased from DiscoverX (95-1005C2). HEK293 cells expressing mouse FFAR1 were prepared using a mouse FFAR1 carrying plasmid purchased from OriGene Technologies (MR222997). The cells were transfected using Lipofectamine 2000 using manufacturer instructions and stable cell line was established from a single cell using geneticine selection. Assay ready frozen (ARF) cells were prepared and used throughout the study.
The assay was performed in a 384-well plate format using IP1 assay kit from Cis-Bio. ARF cells expressing FFAR1 (mouse and human) were thawed, washed and then plated in the appropriate medium (F12 based medium for CHO hFFAR1 and DMEM based medium for HEK293 mFFAR1—both were supplemented with 10% FBS and penicillin/streptomycin). 20 μL of 3.5×10^5 cells/mL were plated on a Poly D-Lysine coated 384-well white plate. The cells were then incubated for 16 hr at 37° C./5% CO2. After 16 hr the medium was removed and 15 μL of stimulation buffer containing the test compounds was added to the cells. The plates were then incubated for 90 min at 37° C./5% CO2. 5 μL of detection buffer (prepared as described in the IP-one kit) was added to each well and the plates were incubated at RT for 1 hr.
[…] was measured using ClarioSTAR plate reader, calculating the ratio between emissions at 665 nm and 620 nm (HTRF ratio). HTRF ratio for positive (Max) and negative (Min) controls were used to normalize HTRF data and generate values for % activity. EC50 and Max activity values were determined using a standard 4-parameter fit.
For orientation: In TR-FRET formats the signal depends on donor and acceptor labels being close together.
Regarding `COc1cc(-c2cc(C)c(C(=O)Oc3cccc([C@@H](CC(=O)O)C4CC4)c3)c(F)c2)ccn1` [Compound 18], the EC50 (commonly the concentration needed to bring the measured effect to its halfway point) is 100 to 500 nM. Consider `COc1ccc(F)c(-c2ccc(OC(=O)c3cccc([C@@H](CC(=O)O)C4CC4)c3)cc2)c1` [Compound 41], for which the EC50 lay in the range of 100 to 500 nM. Take `CC(c1cc(C(F)(F)F)ccc1C(F)(F)F)N1CCC(C(=O)Oc2cccc([C@H](C3CC3)[C@H](C)C(=O)O)c2)CC1` (stereo partly drawn) [Compound 22, (2S,3R)-3-(3-((1-(1-(2,5-bis(trifluoromethyl)phenyl)ethyl)piperidine-4-carbonyl)oxy)phenyl)-3-cyclopropyl-2-methylpropanoic acid]: the EC50 is not above 10 nM.

`COc1ccc(C(=O)N(CC(C)(C)C)c2cccc(C)n2)c(-c2ccc(C(=O)Oc3cccc([C@H](C4CC4)[C@H](C)C(=O)O)c3)c(C)c2)c1` [Compound 31, (2S,3R)-3-cyclopropyl-3-(3-((5′-methoxy-3-methyl-2′-((6-methylpyridin-2-yl)(neopentyl)carbamoyl)-[1,1′-biphenyl]-4-carbonyl)oxy)phenyl)-2-methylpropanoic acid] gave an EC50 not above 10 nM. `COc1ccc(F)c([C@H]2CC[C@H](C(=O)Oc3cccc([C@H](C4CC4)[C@H](C)C(=O)O)c3)CC2)c1` [Compound 40, (2S,3R)-3-cyclopropyl-3-(3-(((1r,4R)-4-(2-fluoro-5-methoxyphenyl)cyclohexanecarbonyl)oxy)phenyl)-2-methylpropanoic acid] had an EC50 not above 10 nM. Take `COc1cc(-c2ccc(OC(=O)c3cccc([C@@H](CC(=O)O)C4CC4)c3)cc2)c(F)cn1` [Compound 44]: the EC50 fell in the range of 100 to 500 nM. `COc1cc(-c2ccc(C(=O)Oc3cccc([C@H](C4CC4)[C@H](C)C(=O)O)c3)c(C)c2)c(C(=O)N(CCO)CCO)cn1` [Compound 52]: the EC50 was more than 500 nM. `COc1cc(-c2ccc(C(=O)Oc3cccc([C@H](C4CC4)[C@H](C)C(=O)OCc4oc(=O)oc4C)c3)cc2CN(C(C)C)C(C)C)c(F)cn1` [Compound 65, 3-((1R, 2S)-1-cyclopropyl-2-methyl-3-((5-methyl-2-oxo-1,3-dioxol-4-yl)methoxy)-3-oxopropyl)phenyl 3-((diisopropylamino)methyl)-4-(5-fluoro-2-methoxypyridin-4-yl)benzoate] gave an EC50 not above 10 nM.

For the molecule `COc1cc(-c2ccc(C(=O)Oc3cccc([C@H](C4CC4)[C@H](C)C(=O)O)c3)c(C)c2)c(F)cn1` [Compound 14], the EC50 is not above 10 nM. `CC(c1cc(C(F)(F)F)ccc1C(F)(F)F)N1CCN(C(=O)Oc2cccc([C@@H](CC(=O)O)C3CC3)c2)CC1` (stereo partly drawn) [Compound 20, (3S)-3-(3-((4-(1-(2,5-bis(trifluoromethyl)phenyl)ethyl)piperazine-1-carbonyl)oxy)phenyl)-3-cyclopropylpropanoic acid] yielded an EC50 of 10 to 100 nM. For the molecule `CCN(Cc1cc(C(=O)Oc2cccc([C@H](C3CC3)[C@H](C)C(=O)O)c2)ccc1-c1cc(OC)ccc1F)C(C)C` [Compound 30], the EC50 is not above 10 nM. `COc1ccc(F)c([C@H]2CC[C@H](C(=O)Oc3cccc([C@H](C4CC4)[C@@](C)(F)C(=O)O)c3)CC2)c1` [Compound 62] had an EC50 not above 10 nM. The result for `COc1cc(-c2cc(F)c(OC(=O)c3cccc([C@H](C4CC4)[C@H](C)C(=O)O)c3)cc2CN(C(C)C)C(C)C)c(F)cn1` [Compound 60] reads not above 10 nM; that for `COc1ccc(F)c(-c2ccc(OC(=O)c3cccc([C@@H](CC(=O)O)C4CC4)c3)c(C)c2)c1` [Compound 45, (S)-3-cyclopropyl-3-(3-(((2′-fluoro-5′-methoxy-3-methyl-[1,1′-biphenyl]-4-yl)oxy)carbonyl)phenyl)propanoic acid], 100 to 500 nM. Molecule `COc1cc(-c2ccc(OC(=O)c3cccc([C@H](C4CC4)[C@H](C)C(=O)O)c3)c(C)c2)c(F)cn1` [Compound 56] came in with a concentration for a half-maximal effect (EC50) not above 10 nM. Molecule `O=C(O)C[C@H](c1cccc(C(=O)O)c1)C1CC1` [Compound 42] gave an EC50 of more than 500 nM.

In turn, `O=C(O)C[C@H](c1cccc(C(=O)Oc2ccc(-c3cc(O)ccc3F)cc2)c1)C1CC1` [Compound 43] displayed an EC50 of 100 to 500 nM. As to `COc1ccc(F)c(-c2ccc(C(=O)Oc3cccc([C@@H](CC(=O)O)C4CC4)c3)nc2)c1` [Compound 4], the EC50 was more than 500 nM. In turn, `COc1cc(-c2ccc(C(=O)Oc3cccc([C@H](C4CC4)[C@H](C)C(=O)O)c3)c(C)c2)ccn1` [Compound 29] came in with an EC50 not above 10 nM. In the case of `COc1cc(-c2cc(F)c(C(=O)Oc3cccc([C@H](C4CC4)[C@@](C)(F)C(=O)O)c3)cc2CN(C(C)C)C(C)C)ccn1` [Compound 39] it was not above 10 nM. The result for `COc1cc(-c2ccc(C(=O)Oc3cccc([C@H](C4CC4)[C@H](C)C(=O)O)c3)cc2CN(C[C@H](O)[C@@H](O)[C@H](O)[C@H](O)CO)C(C)C)c(F)cn1` [Compound 35, (2S,3R)-3-cyclopropyl-3-(3-((4-(5-fluoro-2-methoxypyridin-4-yl)-3-((isopropyl((2S,3R,4R,5R)-2,3,4,5,6-pentahydroxyhexyl)amino)methyl)benzoyl)oxy)phenyl)-2-methylpropanoic acid] reads more than 500 nM. `COc1cc(-c2ccc(C(=O)Oc3cccc([C@H](C4CC4)[C@H](C)C(=O)O)c3)cc2CN2CCC(C)(C)C2)c(F)cn1` [Compound 33, (2S,3R)-3-cyclopropyl-3-[3-[3-[(3,3-dimethylpyrrolidin-1-yl)methyl]-4-(5-fluoro-2-methoxy-4-pyridyl)benzoyl]oxyphenyl]-2-methyl-propanoic acid] registered an EC50 not above 10 nM. `COc1cc(-c2cc(C)c(C(=O)Oc3cccc([C@H](CP(C)(=O)O)C4CC4)c3)cc2CN(C(C)C)C(C)C)c(F)cn1` (single isomer, unassigned) [Compound 71a] displayed an EC50 of more than 500 nM. In the case of `CCN(Cc1cc(C(=O)Oc2cccc([C@H](C3CC3)[C@@](C)(F)C(=O)O)c2)ccc1-c1cc(OC)ncc1F)C(C)C` [Compound 37], the EC50 was not above 10 nM.

Take `COc1cc(-c2ccc(C(=O)Oc3cccc([C@H](C4CC4)[C@H](C)C(=O)OCCP(=O)(O)O)c3)cc2CN(C(C)C)C(C)C)c(F)cn1` [Compound 68, (2-(((2S, 3R)-3-cyclopropyl-3-(3-((3-((diisopropylamino)methyl)-4-(5-fluoro-2-methoxypyridin-4-yl)benzoyl)oxy)phenyl)-2-methylpropanoyl)oxy)ethyl)phosphonic acid]: the EC50 was in the range of 100 to 500 nM. In the case of `COc1cc(-c2ccc(C(=O)Oc3cccc([C@H](C4CC4)[C@H](C)C(=O)O)c3)c(C)c2)c(C(=O)NCCO)cn1` [Compound 51] it was more than 500 nM; in that of `COc1ccc(F)c(-c2ccc(C(=O)Oc3cccc([C@@H](CC(=O)O)C4CC4)c3)cc2)c1` [Compound 1, (S)-3-cyclopropyl-3-(3-((2′-fluoro-5′-methoxy-[1,1′-biphenyl]-4-carbonyl)oxy)phenyl) propanoic acid], 10 to 100 nM; in that of `CC(c1cc(C(F)(F)F)ccc1C(F)(F)F)N1CC(OC(=O)c2cccc([C@@H](CC(=O)O)C3CC3)c2)C1` (stereo partly shown) [Compound 47], more than 500 nM. In the case of `CCN(Cc1cc(OC(=O)c2cccc([C@H](C3CC3)[C@H](C)C(=O)O)c2)ccc1-c1cc(OC)ncc1F)C(C)C` [Compound 57] it was not above 10 nM; in that of `COc1cc(-c2cc(C)c(C(=O)Oc3cccc([C@@H](CP(C)(=O)O)C4CC4)c3)cc2CN(C(C)C)C(C)C)c(F)cn1` (single isomer, unassigned) [Compound 71b], more than 500 nM; in that of `COc1ccc(F)c(-c2nocc2C(=O)Oc2cccc([C@@H](CC(=O)O)C3CC3)c2)c1` [Compound 5, (3S)-3-cyclopropyl-3-[3-[3-(2-fluoro-5-methoxy-phenyl)isoxazole-4-carbonyl]oxyphenyl]propanoic acid], more than 500 nM. `COc1cc(-c2ccc(OC(=O)c3cccc([C@H](C4CC4)[C@H](C)C(=O)O)c3)cc2CN(C(C)C)C(C)C)c(F)cn1` [Compound 58] gave an EC50 not above 10 nM.

`CCN(Cc1cc(-c2cc(OC)ncc2F)ccc1C(=O)Oc1cccc([C@@H](CC(=O)O)C2CC2)c1)C(C)C` [Compound 13]: the EC50 is more than 500 nM. For the molecule `CC(c1cc(C(F)(F)F)ccc1C(F)(F)F)N1CCC(C(=O)Oc2cccc([C@@H](CC(=O)O)C3CC3)c2)C1` (stereo partly drawn) [Compound 8, (3S)-3-(3-((1-(1-(2,5-bis(trifluoromethyl)phenyl)ethyl)pyrrolidine-3-carbonyl)oxy)phenyl)-3-cyclopropylpropanoic acid], the EC50 was 10 to 100 nM. In the case of `COc1cc(-c2ccc(C(=O)Oc3cccc([C@H](C4CC4)[C@H](C)C(=O)O)c3)cc2CN2CCCC2(C)C)c(F)cn1` [Compound 32] it was not above 10 nM. The result for `CC(c1cc(C(F)(F)F)ccc1C(F)(F)F)N1CCC(C(=O)Oc2cccc([C@@H](CC(=O)O)C3CC3)c2)CC1` (stereo partly shown) [Compound 9] reads 10 to 100 nM. Consider `COc1cc(-c2ccc(OC(=O)c3cccc([C@H](C4CC4)[C@@](C)(F)C(=O)O)c3)cc2CN(C(C)C)C(C)C)c(F)cn1` [Compound 63, (2R, 3S)-3-cyclopropyl-3-(3-((3-((diisopropylamino)methyl)-4-(5-fluoro-2-methoxypyridin-4-yl)phenoxy)carbonyl)phenyl)-2-fluoro-2-methylpropanoic acid], for which the EC50 is not above 10 nM.
